Values joined by “and” are separate entries in the source; they are usually repeats but may differ in a detail not shown here. Identical values can stand only once.
Assays:
bone marrow granulocytes = assay: qPCR of bone marrow granulocytes post-MI; format: in vivo, mice; settings: bone marrow granulocytes 24 hours post-MI
Procedure: RNA isolation and qPCR. Total RNA was isolated from cells using the Qiagen RNA isolation kit. cDNA was prepared with the VILO master mix reagent. qPCR analysis was carried out using the Taqman kit with primers for Tlr7, Lcn2 and 18s.
Granulocyte isolation. Bone marrow cells were isolated from the rear legs of mice treated with control or MCB-613 for 24 hours. Rear legs were removed and placed in ice-cold Hanks balanced salt solution (HBSS) (without Ca/Mg) plus 2% FBS. Both ends of the bone were cut and the bone marrow was flushed with ice cold HBSS with 2% FBS using a 26G needle. Clumps were broken up with an 18G needle and filtered through a 70 μm filter and centrifuged at 400 g for 10 min at 4° C. The pellet was suspended in RBC lysis buffer (BD Biosciences Pharmigen; San Diego, CA) and incubated at room temperature for two minutes. HBSS buffer (8 mL) was added and spun at 400 g for 10 mins at 4° C. Viable cells were counted by trypan blue exclusion and bone marrow granulocytes were isolated using a mouse Neutrophil Isolation Kit from Miltenyi Biotec (Bergisch Gladbach, Germany).

[1] = system: mice after myocardial infarction; assay: Myocardial infarction model, permanent LAD ligation (echocardiography, histology, immunostaining, PET, EM); format: in vivo, ICR (CD1) mice
Procedure: Model of heart failure in adult mice. To induce myocardial infarction (MI) in 8- to 10-week-old mice, the left anterior descending (LAD) artery was permanently ligated. Briefly, mice were anesthetized with 2% isoflurane and then intubated. The heart was exposed by performing a thoracotomy through the fourth or fifth intercostal space and an 8-0 nylon suture was tied around the LAD artery. 10 uls of Adenoviral SRC-3 (Ad-SRC-3) or adenoviral GFP (Ad-GFP) at a titre of 9×10^9 pfu/ml was injected into the anterior free wall near left ventricular descending coronary artery. To assess cell cycle entry, the analog 5-ethynyl-2′-deoxyuridine (EdU; 0.2 g/L, Santa Cruz, SC-284628A) was added to the drinking water for the 9 day duration of the experiment. Cell proliferation was measured using Click-iT EdU kit (Invitrogen, C10339). The initial dose of MCB-613 was administered intraperitoneally at 20 mg/kg 2 hours after surgery. Subsequent injections of the same dose were given for 6 additional days, and then repeated doses were given for 3 days at week 9 and week 16. Mice were harvested at indicated time points for analyses.
Echocardiography. Cardiac function was determined by echocardiography (VisualSonics, Vevo 2100, 40 Mhz-550S probe). After alignment in the transverse B-mode with the papillary muscles, cardiac function was measured on M-mode images.
Histological analysis. Whole hearts were fixed with 10% formalin, embedded in paraffin, and sectioned at 7 μm intervals. Each slide had […], which started at the apex and ended at the suture ligation site (approximately 30-50 slides). Sections at the papillary level (slides 20-30) were stained with Picrosirius red to identify areas of fibrosis. Infarct size was determined using a length-based approach.
Immunostaining analysis. Immunohistochemistry and immunofluorescent staining experiments were performed on FFPE (formalin-fixed and paraffin-embedded sections). TUNEL staining to detect apoptotic cells was done using the DeadEnd™ Fluorometric TUNEL System manufacturer's protocol (Promega, GS3250).
Model of heart failure in adult mice. To induce MI in eight- to ten-week-old mice, the left anterior descending (LAD) artery was permanently ligated. Briefly, mice were anesthetized with 2% isoflurane and then intubated. The heart was exposed by performing a thoracotomy through the fourth or fifth intercostal space and an 8-0 nylon suture was tied around the LAD. The initial dose of MCB-613 was administered intraperitoneally at 20 mg/kg, two hours after surgery. Subsequent injection at the same time of the day and same dose were given for six additional days, and then repeated doses were given for three days at week nine and week 16. Mice were harvested at the indicated time points for analyses.
Echocardiography. Cardiac function was determined by echocardiography (VisualSonics, Vevo 2100, 40 Mhz-550S probe). After alignment in the transverse B-mode with the papillary muscles, cardiac function was measured on M-mode images. Animal numbers for cardiac function in FIG. 11A are Day 0 control (17); MCB-613 (15), Day 1 control (10); MCB-613 (12), Day 14 […], Day 56 control (12); MCB-613 (15), Day 70 control (8); MCB-613 (10), Day 80 control (8); MCB-613 (11), Day 133 control (3); and MCB-613 (3).
Histological analysis. Whole hearts were fixed with 10% formalin, embedded in paraffin, and sectioned at 7 μm intervals. Each slide had three (3) to ten (10) sections, which started at the apex and ended at the suture ligation site (approximately 30-50 slides). Sections at the papillary level (slides 20-30) were stained with Picrosirius red to identify areas of fibrosis. Infarct size was determined using a length-based approach. TUNEL staining to detect apoptotic cells was performed using the DeadEnd™ Fluorometric TUNEL System (Promega, GS3250).
Electron Microscopy. […]

[2] = system: SRC-1, SRC-2 or SRC-3 fused with the DNA binding domain of Gal4; assay: Gal4 luciferase reporter (pG5-luc / pBIND-SRC) in HeLa cells; format: cell-based; settings: pG5-luc + pBIND-SRC-1, -2 or -3
Excerpt: The compounds described herein stimulate SRC intrinsic transcriptional activity. HeLa cells transfected with a Gal4 responsive luciferase reporter (pG5-luc) and a construct encoding SRC-1, SRC-2 or SRC-3 fused with the DNA binding domain of Gal4 (pBIND-SRC-1, pBIND-SRC-2 or pBIND-SRC-3) were exposed to treatments with compounds as described herein, including MCB-613, Compound 10-1, and Compound 10-2.

[3] = system: chorioallantoic membrane (CAM) of chicken eggs; assay: Chick egg CAM angiogenesis assay, topical drug; format: in vivo; settings: 0.6 μM applied directly to chick eggs
Procedure: Angiogenesis assay for small molecule stimulator treatments. Five to seven day old specific-pathogen-free (SPF) certified fertilized chicken eggs (white leghorn) were used to access the chorioallantoic membrane (CAM). The total vessel area on the CAM was measured using images obtained prior to application of the drug. MCB-613 (100 μL) at a concentration of 0.6 μM was topically applied onto the surface of the CAM. The vessel area on the CAM was monitored on a daily basis following daily application of the drug. Vehicle controls were maintained throughout the experiment. Treatments were continued for four days at the end of which an image thresholding method (ImageJ) was used to quantify total vessel area on the CAM. Percent growth in vessel area was compared for control and treated eggs. n=6 eggs per condition. This experiment was repeated three times.

Compound: CCC1C/C(=C\c2cccnc2)C(=O)/C(=C/c2cccnc2)C1 (centres unmarked) [MCB-613]
- Tlr7 and Lcn2 mRNA expression in granulocytes (bone marrow granulocytes): Increased expression of Tlr7 and Lcn2
- 18F-FDG uptake in infarct zone (cardiac PET) ([1]; 2 weeks post-MI): Improved ^18F-FDG uptake in the infarct zone
- infarct size vs saline control ([1]; 10 weeks post-MI, picrosirius red): decrease in infarct size
- heart weight (vs tibia length), cardiomegaly ([1]; 12 weeks post-MI): attenuated the MI-induced cardiomegaly compensatory response
- cardiomyocyte size and fibrosis in infarct border zone ([1]; 12 weeks post-MI, Picrosirius red): cardiomyocytes were smaller and associated with less fibrosis in the infarct border zone
- infarct size (Picrosirius red, % length) ([1]; 12 weeks post-MI, individual hearts, control 31% and 44%): 3% and 14% and 20% and 22%
- apoptosis (TUNEL) ([1]; 24 hours post-MI): prevents apoptosis
- average ejection fraction ([1]; 24 hours post-MI, 20 mg/kg ip two hours post-MI, control 30%): 43%
- LYZ1 granule expression in myocardium ([1]; 24 hours post-MI, vs control): LYZ1 granule expression was significantly increased
- myofibrillar and mitochondrial structure (electron micrographs) ([1]; 72 hours post-MI): prevent disorganization of myofibrillar structure and abnormal mitochondrial cristal architecture
- ejection fraction maintained ([1]; from 24 hours until 19 weeks post-MI, 20 mg/kg ip 2 h post-MI and six additional days): above 40%
- angiogenesis in infarct border zone (CD31 immunostain) ([1]; three days post-MI, treated two hours post-MI): Increased angiogenesis was observed in the infarct border zone
- intrinsic transcriptional activity of SRCs (luciferase) [2]: selectively stimulates the intrinsic transcriptional activity of SRCs
- angiogenesis (vessel area on CAM) [3]: stimulated angiogenesis in vivo

Reference: patent US12338229B2, “Small molecule stimulators of steroid receptor coactivator-3 and methods of their use as cardioprotective and/or vascular regenerative agents” (BAYLOR COLLEGE OF MEDICINE, priority 2018, dated 2025)
